Some results are limits rather than exact numbers.

The values below come from patent publication US20120283274A1, “CRYSTALLINE FORMS OF SUBSTITUTED PYRAZOLOPYRIMIDINES” (priority 2009, published 2012).

Common to all, as to format: physicochemical
Series [1] can be described thus: DVS (dynamic vapour sorption), hygroscopicity. The note with it: for hygroscopicity: DVS 50%->0%->95%->50% r.h.; for post-DVS Raman spectrum, change in form: after DVS cycle; for mass change Δm: change of relative humidity (r.h.) from 50 to 85%. How it is done: DVS (50%->0%->95%->50% r.h.) was performed on the samples as mentioned above. The results are summarized in the following:
Surface Measurement Systems Ltd. DVS-1 water vapour sorption analyzer and Projekt Messtechnik SPS 11-100n multi-sample water vapor sorption analyzer were used.
The sample was allowed to equilibrate at 50% relative humidity (r.h.) before starting e.g. the following predefined humidity program: • 2 h at 0% r.h. • 0 to 95% r.h. (5%/h) • 3 h at 95% r.h. • 95 to 0% (10%/h) • 2 h at 0% r.h.

A short description of series [2]: Determination of dissolution rate of a compressed tablet (UV-absorption spectroscopy). Conditions: for Dissolution rate: 0.15 M aqueous potassium chloride, 23° C., compressed tablet. More on the design: key to Dissolution rate: —: In case that no data given in the Table 3 it was found, that the dissolution rate did not change significantly in moving from the second to the third and fourth sectors. An excerpt:
Only one face of the tablet was exposed to the dissolution medium, which contained an acetate/phosphate buffer system to minimise perturbation of the experimental pH from dissolution of the drug. Stirring of the solution was continuous and at a constant rate. The absorption data was converted to absolute sample weights using previously determined, pH-dependent, molar extinction coefficients. An appropriate wavelength range was chosen to ensure that spectroscopic data with an absorption value of <1.3 was analyzed, avoiding erroneous dissolution results due to saturation of the […]. Dissolution rates were calculated from the fit of a first-order exponential equation to the experimental data obtained.
The dissolution rates listed in the Table 3 were determined at pH 2.0, 3.9, 5.4, and 7.3 (+/−0.1), at a temperature of 23° C. (+/−1° C.).

Series [3] is described as follows: Determination of aqueous solubility (HPLC). How it is done: The samples were shaken with a temperature controlled “Thermomixer comfort” from Eppendorf at 800 rpm (24 hours, 23° C.). The resulting suspensions were filtered with Millipore Centrifugal Filter Device UFC30VVNB (0.1) and Centrifuge Hettich EBA 12 R (10.000 g).
The pH of the filtrate was measured, and the concentration of the free base was determined by HPLC (method is described in Example 7).
Suspension of co-crystal in water was agitated with a temperature controlled. Thermomixer comfort” from Eppendorf with 800 rpm (24 hours, 23° C.). The suspension was filtered with Millipore Centrifugal Filter Device UFC30VVNB (0.1μ) and Centrifuge Hettich EBA 12 R (10,000 g).

Turning to `C[C@@H]1c2ccccc2CCN1C(=O)c1cc2ncc(Br)cn2n1.O=C(O)c1cc(O)ccc1O` [Example 3c, co-crystal of (6-bromo-pyrazolo[1,5-a]pyrimidin-2-yl)-(1(R)-methyl-3,4-dihydro-1H-isoquinolin-2-yl)-methanone and gentisic acid], in series [1], the hygroscopicity entry is “not hygroscopic”. Further, the “post-DVS Raman spectrum, change in form” value in series [1] is recorded as “does not indicate any change in form”. The “mass change Δm” value in series [1] was “about 0.1%”. In addition, the Dissolution rate in series [2] (pH 2.0) is 2.04 µg/min; in series [2] (pH 3.9), 1.06 µg/min; in series [2] (pH 5.4), “—”; in series [2] (pH 7.3) it was “—”.

For the compound `C[C@@H]1c2ccccc2CCN1C(=O)c1cc2ncc(Br)cn2n1.O=C(O)c1ccc2ccccc2c1O` [Example 4c, co-crystal of (6-bromo-pyrazolo[1,5-a]pyrimidin-2-yl)-(1(R)-methyl-3,4-dihydro-1H-isoquinolin-2-yl)-methanone and xinafoic acid], the hygroscopicity entry in series [1] is “slightly hygroscopic”. In addition, in series [1], the “post-DVS Raman spectrum, change in form” value is “does not indicate any change in form”. The “mass change Δm” value in series [1] was “about 1%”. In series [1] (humidity increased to 95% r.h., equilibrium reached), the total water content result is reported as “approximately 2 wt.-%”. Further, the Dissolution rate in series [2] (pH 2.0) was found to be 0.46 µg/min; in series [2] (pH 3.9), 0.68 µg/min; in series [2] (pH 5.4) it was 1.26 µg/min; in series [2] (pH 7.3), 1.44 µg/min.

With `C[C@@H]1c2ccccc2CCN1C(=O)c1cc2ncc(Br)cn2n1` [Free drug compound, (6-bromo-pyrazolo[1,5-a]pyrimidin-2-yl)-(1(R)-methyl-3,4-dihydro-1H-isoquinolin-2-yl)-methanone], the solubility at 24 h in series [3] (thermodynamic from solid, water, 24 hours, 23° C., at pH 8.5, near the detection limit) is less than 10 µg/mL. In addition, the Dissolution rate in series [2] (pH 2.0) is 0.58 µg/min; in series [2] (pH 3.9), 0.22 µg/min; in series [2] (pH 5.4), “—”; in series [2] (pH 7.3), “—”.

Consider `CC1c2ccccc2CCN1C(=O)c1cc2ncc(Br)cn2n1` (centres unmarked) [compound A], for which the “solubility in water or aqueous solvents” value in series [3] (water or aqueous solvents) is reported as “below 10 μg/mL”.

In the case of “co-crystal of (6-bromo-pyrazolo[1,5-a]pyrimidin-2-yl)-(1(R)-methyl-3,4-dihydro-1H-isoquinolin-2-yl)-methanone and succinic acid [Example 2a]”, the hygroscopicity result in series [1] is recorded as “not hygroscopic”. The “post-DVS Raman spectrum, change in form” value in series [1] is on record as “does not indicate any change in form”. Besides, in series [1], the “mass change Δm” value is “about 0.1%”. Moreover, the “enhancement of the dissolution rate compared to the free drug” value in series [2] (at pH 2) is 3 fold. Moreover, the Dissolution rate in series [2] (pH 2.0) is 2.06 µg/min; in series [2] (pH 3.9) it was 1.58 µg/min; in series [2] (pH 5.4), “—”; in series [2] (pH 7.3), “—”.

Broadly, the solubility is the concentration that dissolves in the medium under given conditions.
